# Where two headings read alike, the source gives them in different places.
# Experiments:
# in vitro = conditions: human, uninfected MT-4 cells
# HIV-1 (IIIB) = assay: microbe, parasite or virus in culture; format: cell-based; conditions: Human immunodeficiency virus 1, IIIB, MT4, 120 h, read-out: MT4 EC50
# Method: Compounds were tested in a high-throughput 384-well assay format for their ability to inhibit the replication of HIV-1 (IIIB) in MT-4 cells. Compounds were serially diluted (1:3) in DMSO on 384-well polypropylene plates and further diluted 200-fold into complete RPMI media (10% FBS, 1% P/S) using the Biotek Micro Flow and Labcyte ECHO acoustic dispenser. Each plate contained up to 8 test compounds, with negative (No Drug Control) and 5 μM AZT positive controls. MT-4 cells were pre-infected with 10 μL of either RPMI (mock-infected) or a fresh 1:250 dilution of HIV-1 IIIB concentrated virus stock. Infected and uninfected MT-4 cells were further diluted in complete RPMI media and added to each plate using a Micro Flow dispenser. After 5 days incubation in a humidified and temperature controlled incubator (37° C.), Cell Titer Glo (Promega) was added to the assay plates and chemiluminescence read using an Envision plate-reader.
# pLAI reporter virus = assay: microbe, parasite or virus in culture; format: cell-based, HIV; conditions: Human immunodeficiency virus 1, MT4, 72 h
# [1] = HIV-1 (IIIB) in MT-4 cells, 5 days incubation, Cell Titer Glo
SMILES,CC50 at 5 days (in vitro) [nM],EC50 (HIV-1 (IIIB); [1]) [nM],EC50 (pLAI reporter virus; read-out: RLUC 50% HS EC50) [nM],EC50 (pLAI reporter virus; read-out: RLUC CCM EC50) [nM],EC50 (HIV-1 (IIIB)) [nM]
"C[C@H]1CC[C@]2(CC(=O)N(Cc3cnn(C)n3)O2)[C@H]2CN1C(=O)c1c(O)c(=O)c(C(=O)NCc3c(F)cc(F)cc3F)cn12 [Example 104, (3′S,5S,7′R)-12′-hydroxy-3′-methyl-2-((2-methyl-2H-1,2,3-triazol-4-yl)methyl)-1′,3,11′-trioxo-N-(2,4,6-trifluorobenzyl)-1′,4′,5′,11′-tetrahydro-3′H,7′H-spiro[isoxazolidine-5,6′-[2,7]methanopyrido[1,2-a][1,4]diazonine]-10′-carboxamide]",≥ 50000,2.6,0.3,0.9,
"C[C@H]1CC[C@]2(CC(=O)N(CCc3ccccc3)O2)[C@H]2CN1C(=O)c1c(O)c(=O)c(C(=O)NCc3c(F)cc(F)cc3F)cn12 [Example 105, (3′S,5S,7′R)-12′-hydroxy-3′-methyl-1′,3,11′-trioxo-2-phenethyl-N-(2,4,6-trifluorobenzyl)-1′,4′,5′,11′-tetrahydro-3′H,7′H-spiro[isoxazolidine-5,6′-[2,7]methanopyrido[1,2-a][1,4]diazonine]-10′-carboxamide]",≥ 50000,1.2,15.5,0.3,
"C[C@H]1CC[C@]2(CC(=O)N(Cc3cccc4ccccc34)O2)[C@H]2CN1C(=O)c1c(O)c(=O)c(C(=O)NCc3c(F)cc(F)cc3F)cn12 [Example 106, (3′S,5S,7′R)-12′-hydroxy-3′-methyl-2-(naphthalen-1-ylmethyl)-1′,3,11′-trioxo-N-(2,4,6-trifluorobenzyl)-1′,4′,5′,11′-tetrahydro-3′H,7′H-spiro[isoxazolidine-5,6′-[2,7]methanopyrido[1,2-a][1,4]diazonine]-10′-carboxamide]",≥ 50000,0.9,64.2,0.2,
"C[C@H]1CC[C@]2(CC(=O)N(Cc3ccc4ccccc4c3)O2)[C@H]2CN1C(=O)c1c(O)c(=O)c(C(=O)NCc3c(F)cc(F)cc3F)cn12 [Example 107, (3′S,5S,7′R)-12′-hydroxy-3′-methyl-2-(naphthalen-2-ylmethyl)-1′,3,11′-trioxo-N-(2,4,6-trifluorobenzyl)-1′,4′,5′,11′-tetrahydro-3′H,7′H-spiro[isoxazolidine-5,6′-[2,7]methanopyrido[1,2-a][1,4]diazonine]-10′-carboxamide]",≥ 50000,0.8,10.2,0.3,
"C[C@H]1CC[C@]2(CC(=O)N(C)O2)[C@H]2CN1C(=O)c1c(O)c(=O)c(C(=O)NCc3c(F)cc(F)cc3F)cn12 [Example 108, (3′S,5S,7′R)-12′-hydroxy-2,3′-dimethyl-1′,3,11′-trioxo-N-(2,4,6-trifluorobenzyl)-1′,4′,5′,11′-tetrahydro-3′H,7′H-spiro[isoxazolidine-5,6′-[2,7]methanopyrido[1,2-a][1,4]diazonine]-10′-carboxamide]",≥ 50000,3.5,7.8,0.5,
"C[C@H]1CC[C@]2(CC(=O)N(Cc3ccc(Cl)cc3)O2)[C@H]2CN1C(=O)c1c(O)c(=O)c(C(=O)NCc3c(F)cc(F)cc3F)cn12 [Example 109, (3′S,5S,7′R)-2-(4-chlorobenzyl)-12′-hydroxy-3′-methyl-1′,3,11′-trioxo-N-(2,4,6-trifluorobenzyl)-1′,4′,5′,11′-tetrahydro-3′H,7′H-spiro[isoxazolidine-5,6′-[2,7]methanopyrido[1,2-a][1,4]diazonine]-10′-carboxamide]",2890,1.6,3.9,0.3,
"C[C@H]1CC[C@]2(CC(=O)N(Cc3ccc(F)cc3F)O2)[C@H]2CN1C(=O)c1c(O)c(=O)c(C(=O)NCc3c(F)cc(F)cc3F)cn12 [Example 110, (3′S,5S,7′R)-2-(2,4-difluorobenzyl)-12′-hydroxy-3′-methyl-1′,3,11′-trioxo-N-(2,4,6-trifluorobenzyl)-1′,4′,5′,11′-tetrahydro-3′H,7′H-spiro[isoxazolidine-5,6′-[2,7]methanopyrido[1,2-a][1,4]diazonine]-10′-carboxamide]",12000,1.2,2.9,0.3,
"C[C@H]1CC[C@]2(CC(=O)N(Cc3cccc(C(F)(F)F)c3)O2)[C@H]2CN1C(=O)c1c(O)c(=O)c(C(=O)NCc3c(F)cc(F)cc3F)cn12 [Example 111, (3′S,5S,7′R)-12′-hydroxy-3′-methyl-1′,3,11′-trioxo-N-(2,4,6-trifluorobenzyl)-2-(3-(trifluoromethyl)benzyl)-1′,4′,5′,11′-tetrahydro-3′H,7′H-spiro[isoxazolidine-5,6′-[2,7]methanopyrido[1,2-a][1,4]diazonine]-10′-carboxamide]",7230,2.3,1.9,0.4,
"C[C@H]1CC[C@]2(CC(=O)N(Cc3ccc4ncsc4c3)O2)[C@H]2CN1C(=O)c1c(O)c(=O)c(C(=O)NCc3c(F)cc(F)cc3F)cn12 [Example 112, (3′S,5S,7′R)-2-(benzo[d]thiazol-6-ylmethyl)-12′-hydroxy-3′-methyl-1′,3,11′-trioxo-N-(2,4,6-trifluorobenzyl)-1′,4′,5′,11′-tetrahydro-3′H,7′H-spiro[isoxazolidine-5,6′-[2,7]methanopyrido[1,2-a][1,4]diazonine]-10′-carboxamide]",≥ 50000,0.7,0.4,0.2,
"C[C@H]1CC[C@]2(CC(=O)N(Cc3ccc4scnc4c3)O2)[C@H]2CN1C(=O)c1c(O)c(=O)c(C(=O)NCc3c(F)cc(F)cc3F)cn12 [Example 113, (3′S,5S,7′R)-2-(benzo[d]thiazol-5-ylmethyl)-12′-hydroxy-3′-methyl-1′,3,11′-trioxo-N-(2,4,6-trifluorobenzyl)-1′,4′,5′,11′-tetrahydro-3′H,7′H-spiro[isoxazolidine-5,6′-[2,7]methanopyrido[1,2-a][1,4]diazonine]-10′-carboxamide]",≥ 50000,0.7,0.7,0.1,
"C[C@H]1CC[C@]2(CC(=O)N(Cc3cccc4[nH]cnc34)O2)[C@H]2CN1C(=O)c1c(O)c(=O)c(C(=O)NCc3c(F)cc(F)cc3F)cn12 [Example 114, (3′S,5S,7′R)-2-((1H-benzo[d]imidazol-4-yl)methyl)-12′-hydroxy-3′-methyl-1′,3,11′-trioxo-N-(2,4,6-trifluorobenzyl)-1′,4′,5′,11′-tetrahydro-3′H,7′H-spiro[isoxazolidine-5,6′-[2,7]methanopyrido[1,2-a][1,4]diazonine]-10′-carboxamide]",≥ 50000,6.1,5.9,1.9,
"C[C@H]1CC[C@]2(CC(=O)N(Cc3ccc(C#N)cc3)O2)[C@H]2CN1C(=O)c1c(O)c(=O)c(C(=O)NCc3c(F)cc(F)cc3F)cn12 [Example 118, (3′S,5S,7′R)-2-(4-cyanobenzyl)-12′-hydroxy-3′-methyl-1′,3,11′-trioxo-N-(2,4,6-trifluorobenzyl)-1′,4′,5′,11′-tetrahydro-3′H,7′H-spiro[isoxazolidine-5,6′-[2,7]methanopyrido[1,2-a][1,4]diazonine]-10′-carboxamide]",≥ 50000,2.6,0.4,0.4,
"COc1ccc(CN2O[C@@]3(CC[C@H](C)N4C[C@H]3n3cc(C(=O)NCc5c(F)cc(F)cc5F)c(=O)c(O)c3C4=O)CC2=O)cc1 [Example 119, (3′S,5S,7′R)-12′-hydroxy-2-(4-methoxybenzyl)-3′-methyl-1′,3,11′-trioxo-N-(2,4,6-trifluorobenzyl)-1′,4′,5′,11′-tetrahydro-3′H,7′H-spiro[isoxazolidine-5,6′-[2,7]methanopyrido[1,2-a][1,4]diazonine]-10′-carboxamide]",≥ 50000,1.5,2.3,0.5,
"C[C@H]1CC[C@]2(CCC(=O)N2)[C@H]2CN1C(=O)c1c(O)c(=O)c(C(=O)NCc3c(F)cc(F)cc3F)cn12 [Example 121, (2S,3′S,7′R)-12′-hydroxy-3′-methyl-1′,5,11′-trioxo-N-(2,4,6-trifluorobenzyl)-1′,4′,5′,11′-tetrahydro-3′H,7′H-spiro[pyrrolidine-2,6′-[2,7]methanopyrido[1,2-a][1,4]diazonine]-10′-carboxamide]",≥ 50000,86.5,19.9,16.9,
"C[C@H]1CC[C@]2(CCCN2)[C@H]2CN1C(=O)c1c(O)c(=O)c(C(=O)NCc3c(F)cc(F)cc3F)cn12 [Example 122, (2R,3′S,7′R)-12′-hydroxy-3′-methyl-1′,11′-dioxo-N-(2,4,6-trifluorobenzyl)-1′,4′,5′,11′-tetrahydro-3′H,7′H-spiro[pyrrolidine-2,6′-[2,7]methanopyrido[1,2-a][1,4]diazonine]-10′-carboxamide]",38000,,7.6,0.9,6.4
"C[C@H]1CC[C@@]2(CC(O)CO2)[C@H]2CN1C(=O)c1c(O)c(=O)c(C(=O)NCc3c(F)cc(F)cc3F)cn12 (stereo partly drawn) [Example 123, (2R,3′S,7′R)-4,12′-dihydroxy-3′-methyl-1′,11′-dioxo-N-(2,4,6-trifluorobenzyl)-1′,4,4′,5,5′,11′-hexahydro-3H,3′H,7′H-spiro[furan-2,6′-[2,7]methanopyrido[1,2-a][1,4]diazonine]-10′-carboxamide]",≥ 50000,8.4,1.4,2.1,
